Assay results from ChEMBL document CHEMBL1150318, “Discovery of a novel, orally active himbacine-based thrombin receptor antagonist (SCH 530348) with potent antiplatelet activity” (J Med Chem, 2008).
Activity calls are given as the source filed them. The calls are words filed in the database; no cut-off is given here.

How the values were obtained:
[1] = AUC (0 to 24 hrs) in rat 10 mg/kg, po; assay type: ADME, organism-based; design: time < 24 hr, dose 10 mg/kg, route oral; settings: plasma
[2] = target: T1, Cytochrome P450 1A2 (Homo sapiens, UniProt P05177); test: Inhibition of CYP1A2 in human liver microsomes at 90 uM; assay type: ADME, Microsome
T1 sequence (P05177 whole entry): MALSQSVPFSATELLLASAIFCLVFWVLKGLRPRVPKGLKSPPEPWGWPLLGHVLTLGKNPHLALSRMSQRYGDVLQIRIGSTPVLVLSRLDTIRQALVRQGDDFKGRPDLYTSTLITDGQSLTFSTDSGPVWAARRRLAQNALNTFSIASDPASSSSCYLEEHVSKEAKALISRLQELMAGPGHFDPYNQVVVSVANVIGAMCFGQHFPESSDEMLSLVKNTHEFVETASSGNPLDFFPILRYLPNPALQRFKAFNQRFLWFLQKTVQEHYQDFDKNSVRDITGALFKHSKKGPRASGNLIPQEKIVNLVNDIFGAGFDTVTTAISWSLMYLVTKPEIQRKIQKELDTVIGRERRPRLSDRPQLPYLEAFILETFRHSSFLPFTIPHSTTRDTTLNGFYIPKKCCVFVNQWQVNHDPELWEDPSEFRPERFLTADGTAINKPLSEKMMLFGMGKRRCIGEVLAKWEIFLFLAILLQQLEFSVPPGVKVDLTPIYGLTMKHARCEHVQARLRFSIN

[3] = Cmax in monkey 1 mg/kg, po; assay type: ADME, organism-based, Macaca mulatta; design: dose 1 mg/kg, route oral; settings: rhesus monkey, in vivo
[4] = Oral bioavailability in monkey 1 mg/kg; assay type: ADME, organism-based, Macaca mulatta; settings: rhesus monkey, in vivo
[5] = test system: Platelet; test: Ex vivo inhibition of haTRAP-induced platelet aggregation in cynomolgus monkey at 0.3 mg/kg, po after 24 hrs by impedance aggregometry; assay type: functional; settings: Macaca fascicularis
[6] = test system: Platelet; test: Ex vivo inhibition of haTRAP-induced platelet aggregation in cynomolgus monkey at 0.5 mg/kg, po after 24 hrs by impedance aggregometry; assay type: functional; settings: Macaca fascicularis
[7] = target: Cytochrome P450 2C9 (Homo sapiens, UniProt P11712); test: Inhibition of CYP2C9 in human liver microsomes at 90 uM; assay type: ADME, Microsome
Sequence of Cytochrome P450 2C9 (P11712 whole entry): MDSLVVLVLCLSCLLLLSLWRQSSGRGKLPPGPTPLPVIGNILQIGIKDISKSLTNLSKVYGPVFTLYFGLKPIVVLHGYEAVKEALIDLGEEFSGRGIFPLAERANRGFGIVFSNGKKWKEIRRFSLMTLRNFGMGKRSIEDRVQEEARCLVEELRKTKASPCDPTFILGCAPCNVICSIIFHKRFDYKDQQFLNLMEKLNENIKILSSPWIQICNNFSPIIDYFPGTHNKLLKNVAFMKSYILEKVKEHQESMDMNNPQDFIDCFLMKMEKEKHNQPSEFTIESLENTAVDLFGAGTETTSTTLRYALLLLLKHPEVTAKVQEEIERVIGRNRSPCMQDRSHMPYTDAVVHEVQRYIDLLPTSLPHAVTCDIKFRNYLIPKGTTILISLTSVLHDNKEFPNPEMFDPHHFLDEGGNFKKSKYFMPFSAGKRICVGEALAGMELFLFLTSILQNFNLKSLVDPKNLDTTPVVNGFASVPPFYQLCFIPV

[8] = target: T2, Proteinase-activated receptor 4 (Homo sapiens) (UniProt Q96RI0); test: Activity at PAR4
T2 sequence (whole entry): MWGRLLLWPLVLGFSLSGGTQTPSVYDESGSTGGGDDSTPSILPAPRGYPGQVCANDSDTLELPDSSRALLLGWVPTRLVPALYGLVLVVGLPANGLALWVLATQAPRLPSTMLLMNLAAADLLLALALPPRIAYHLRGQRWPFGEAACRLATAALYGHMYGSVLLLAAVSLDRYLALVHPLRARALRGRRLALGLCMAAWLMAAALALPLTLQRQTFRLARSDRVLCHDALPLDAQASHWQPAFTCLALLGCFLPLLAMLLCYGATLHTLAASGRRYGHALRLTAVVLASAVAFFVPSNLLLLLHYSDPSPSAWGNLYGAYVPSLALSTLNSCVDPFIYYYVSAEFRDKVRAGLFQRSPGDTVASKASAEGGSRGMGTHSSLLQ

[9] = Cmax in rat 10 mg/kg, po; assay type: ADME, organism-based; design: dose 10 mg/kg, route oral; settings: in vivo
[10] = test system: Plasma; test: Anticoagulant activity in human plasma assessed as prothrombin time; assay type: functional, cell-free
[11] = Cmax in cynomolgus monkey at 0.1 mg/kg, po after >24 hrs; assay type: ADME, organism-based, Macaca fascicularis; design: dose 0.1 mg/kg, route oral; settings: in vivo
[12] = Inhibition of […] in human liver microsomes at 90 uM; assay type: ADME, Microsome
[13] = Half life in monkey 1 mg/kg, iv; assay type: ADME, organism-based, Macaca mulatta; design: dose 1 mg/kg, route intravenous; settings: rhesus monkey, in vivo
[14] = Oral bioavailability in rat 10 mg/kg; assay type: ADME, organism-based; settings: in vivo
[15] = target: Cytochrome P450 3A4 (Homo sapiens, UniProt P08684); test: Inhibition of CYP3A4 in human liver microsomes at 90 uM; assay type: ADME, Microsome
Sequence of Cytochrome P450 3A4 (P08684 whole entry): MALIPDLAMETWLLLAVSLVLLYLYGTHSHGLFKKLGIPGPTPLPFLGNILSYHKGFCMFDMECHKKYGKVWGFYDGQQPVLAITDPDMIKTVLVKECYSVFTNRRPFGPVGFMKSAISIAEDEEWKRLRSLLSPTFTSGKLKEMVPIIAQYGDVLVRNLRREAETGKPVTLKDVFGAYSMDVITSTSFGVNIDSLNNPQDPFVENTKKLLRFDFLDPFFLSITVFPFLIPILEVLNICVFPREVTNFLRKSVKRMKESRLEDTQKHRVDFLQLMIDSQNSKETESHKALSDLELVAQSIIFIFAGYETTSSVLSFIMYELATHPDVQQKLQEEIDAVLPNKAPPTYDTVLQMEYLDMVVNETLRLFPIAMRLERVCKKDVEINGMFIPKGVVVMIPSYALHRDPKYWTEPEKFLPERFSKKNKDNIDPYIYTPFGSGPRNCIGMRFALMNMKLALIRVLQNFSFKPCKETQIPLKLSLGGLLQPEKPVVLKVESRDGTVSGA

[16] = target: Cytochrome P450 2C19 (Homo sapiens, UniProt P33261); test: Inhibition of CYP2C19 in human liver microsomes at 90 uM; assay type: ADME, Microsome
Sequence of Cytochrome P450 2C19 (P33261 whole entry): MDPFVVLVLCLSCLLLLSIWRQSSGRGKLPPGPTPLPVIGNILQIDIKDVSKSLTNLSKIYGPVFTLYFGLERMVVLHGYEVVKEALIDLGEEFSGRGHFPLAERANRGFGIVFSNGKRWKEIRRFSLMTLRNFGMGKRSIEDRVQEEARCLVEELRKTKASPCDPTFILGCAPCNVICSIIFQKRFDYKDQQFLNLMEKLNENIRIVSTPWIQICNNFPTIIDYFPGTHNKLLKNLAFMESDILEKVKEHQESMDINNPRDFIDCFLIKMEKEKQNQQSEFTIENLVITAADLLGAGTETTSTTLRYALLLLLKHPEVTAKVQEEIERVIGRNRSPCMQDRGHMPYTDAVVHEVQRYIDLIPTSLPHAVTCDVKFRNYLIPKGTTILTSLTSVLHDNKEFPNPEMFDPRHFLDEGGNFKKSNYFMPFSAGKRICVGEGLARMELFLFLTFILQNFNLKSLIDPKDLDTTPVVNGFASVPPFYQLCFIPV

[17] = Oral absorption in rat 10 mg/kg, po; assay type: ADME, organism-based; design: dose 10 mg/kg, route oral; settings: in vivo, read-out: Fabs
[18] = Half life in rat 10 mg/kg, iv; assay type: ADME, organism-based; design: dose 10 mg/kg, route intravenous; settings: in vivo
[19] = Oral absorption in monkey 1 mg/kg, po; settings: rhesus monkey, in vivo, read-out: Fabs
[20] = target: Proteinase-activated receptor 2 (Homo sapiens) (UniProt P55085); test: Binding affinity to PAR2
Sequence of Proteinase-activated receptor 2 (Homo sapiens) (P55085 whole entry): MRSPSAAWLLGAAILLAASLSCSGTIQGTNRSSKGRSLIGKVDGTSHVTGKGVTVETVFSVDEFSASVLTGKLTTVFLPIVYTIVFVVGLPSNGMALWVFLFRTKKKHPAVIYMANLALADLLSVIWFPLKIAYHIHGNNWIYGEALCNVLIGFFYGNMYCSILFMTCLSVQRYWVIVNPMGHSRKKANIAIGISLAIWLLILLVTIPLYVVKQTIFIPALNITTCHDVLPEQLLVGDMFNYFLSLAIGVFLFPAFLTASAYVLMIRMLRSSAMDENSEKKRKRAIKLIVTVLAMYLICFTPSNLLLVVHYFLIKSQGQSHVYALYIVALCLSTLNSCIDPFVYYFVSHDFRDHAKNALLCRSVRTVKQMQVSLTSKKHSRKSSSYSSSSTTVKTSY

[21] = AUC (0 to 24 hrs) in monkey 1 mg/kg, po; assay type: ADME, organism-based, Macaca mulatta; design: time < 24 hr, dose 1 mg/kg, route oral; settings: rhesus monkey, plasma
[22] = test system: Plasma; test: Anticoagulant activity in human plasma assessed as activated partial thromboplastin time; assay type: functional, cell-free
[23] = Tmax in monkey 1 mg/kg, po; assay type: ADME, organism-based, Macaca mulatta; design: dose 1 mg/kg, route oral; settings: rhesus monkey, in vivo
[24] = test system: Platelet; test: Ex vivo inhibition of haTRAP-induced platelet aggregation in cynomolgus monkey at 0.1 mg/kg after >24 hrs by impedance aggregometry; assay type: functional; settings: Macaca fascicularis
[25] = target: T3, Proteinase-activated receptor 1 (Homo sapiens, UniProt P25116); test: Displacement of [3H]haTRAP from PAR1 in human platelets
T3 sequence (P25116 whole entry): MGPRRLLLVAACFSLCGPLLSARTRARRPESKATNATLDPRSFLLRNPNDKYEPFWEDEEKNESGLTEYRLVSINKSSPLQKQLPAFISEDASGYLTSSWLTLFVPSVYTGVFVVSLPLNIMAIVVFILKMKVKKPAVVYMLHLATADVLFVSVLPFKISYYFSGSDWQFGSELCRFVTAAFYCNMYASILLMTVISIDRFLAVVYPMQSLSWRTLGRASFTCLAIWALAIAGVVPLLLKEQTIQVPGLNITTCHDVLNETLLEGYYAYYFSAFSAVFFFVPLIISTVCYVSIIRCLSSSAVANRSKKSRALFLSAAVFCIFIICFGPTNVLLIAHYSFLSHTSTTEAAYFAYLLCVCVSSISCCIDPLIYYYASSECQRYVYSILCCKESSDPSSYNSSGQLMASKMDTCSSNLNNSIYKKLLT

[26] = Tmax in rat 10 mg/kg, po; assay type: ADME, organism-based; design: dose 10 mg/kg, route oral; settings: in vivo
[27] = target: T3, Proteinase-activated receptor 1; test: Antagonist activity at human PAR1 in HCASMC assessed as inhibition of thrombin-induced calcium efflux; assay type: functional
[28] = AUC (0 to 24 hrs) in cynomolgus monkey at 0.1 mg/kg, po after >24 hrs; assay type: ADME, organism-based, Macaca fascicularis; design: time < 24 hr, dose 0.1 mg/kg, route oral; settings: plasma
[29] = target: T4, Proteinase-activated receptor 3 (Homo sapiens) (UniProt O00254); test: Binding affinity to PAR3
T4 sequence (whole entry): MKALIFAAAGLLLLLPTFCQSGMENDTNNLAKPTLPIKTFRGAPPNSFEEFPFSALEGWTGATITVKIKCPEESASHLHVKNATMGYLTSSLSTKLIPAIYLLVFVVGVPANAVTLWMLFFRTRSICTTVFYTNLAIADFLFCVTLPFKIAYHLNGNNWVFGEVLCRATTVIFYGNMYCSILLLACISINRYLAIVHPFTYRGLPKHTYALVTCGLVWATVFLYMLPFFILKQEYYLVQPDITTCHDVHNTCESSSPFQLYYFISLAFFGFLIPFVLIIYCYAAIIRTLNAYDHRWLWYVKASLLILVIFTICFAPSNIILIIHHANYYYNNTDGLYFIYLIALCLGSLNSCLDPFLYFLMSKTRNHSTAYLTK

[30] = test system: Platelet; test: Ex vivo inhibition of haTRAP-induced platelet aggregation in cynomolgus monkey at 1 mg/kg after >24 hrs by impedance aggregometry; assay type: functional; settings: Macaca fascicularis
[31] = Cmax in cynomolgus monkey at 1 mg/kg, po after >24 hrs; assay type: ADME, organism-based, Macaca fascicularis; design: dose 1 mg/kg, route oral; settings: in vivo
[32] = AUC (0 to 24 hrs) in cynomolgus monkey at 1 mg/kg, po after >24 hrs; assay type: ADME, organism-based, Macaca fascicularis; design: time < 24 hr, dose 1 mg/kg, route oral; settings: plasma

## CCOC(=O)N[C@@H]1CC[C@@H]2[C@@H](C1)C[C@H]1C(=O)O[C@H](C)[C@H]1[C@H]2/C=C/c1ccc(-c2cccc(F)c2)cn1 [VORAPAXAR]
[1]
  AUC(0-t) at 24 h: 5.3 µM·h
[2]
  Activity: Not Active
[3]
  Cmax: 1300 nM
[4]
  bioavailability: 86%
[5]
  inhibition in vivo at 0.3 mg/kg: 100%
[6]
  inhibition in vivo at 0.5 mg/kg: 100%
[7]
  Activity: Not Active
[8]
  Activity: inactive
[9]
  Cmax: 670 nM
[10]
  Activity: inactive
[11]
  Cmax: 18 nM
[12]
  Activity: Not Active
[13]
  half-life: 13 h
[14]
  bioavailability: 33%
[15]
  Activity: Not Active
[16]
  Activity: Not Active
[17]
  Fa: 68%
[18]
  half-life: 5.1 h
[19]
  Fa: 82%
[20]
  Activity: inactive
[21]
  AUC(0-t) at 24 h: 10 µM·h
[22]
  Activity: inactive
[23]
  Tmax: 1 h
[24]
  inhibition in vivo at 0.1 mg/kg: 100%
[25]
  Ki: 8.1 nM
[26]
  Tmax: 3 h
[27]
  Ki: 1.1 nM
[28]
  AUC(0-t) at 24 h: 0.2 µM·h
[29]
  Activity: inactive

## CCOC(=O)N[C@@H]1CC[C@@H]2[C@@H](C1)C[C@H]1C(=O)O[C@H](C)[C@H]1[C@H]2/C=C/c1ccc(-c2cccc(C(F)(F)F)c2)cn1
[30]
  inhibition in vivo at 1 mg/kg: 100%
[31]
  Cmax: 330 nM
[25]
  Ki: 13 nM
[32]
  AUC(0-t) at 24 h: 5.03 µM·h
